# In patent US20220168391A1, “USE OF EPIDERMAL GROWTH FACTOR IN DIABETIC FOOT ULCER TREATMENT” (Centro de Ingeniería Genética y Biotecnología, priority 2019, published 2022):
# Experiments:
# [1] = system: DFU patients with no amputation criteria of the limb; experiment: Example 4: healing of DFU after intralesional rhEGF once a week plus conventional therapy; format: in vivo, human
# Description: The intralesional treatment with this growth factor was performed once a week, for 8 weeks, or for less time, if the lesion closed up to a dimension equal to or less than 1 cm^2. Another group of patients received conventional therapy only, with the difference that the procedure was performed three times a week, until the complete closure of the lesion was achieved.
# The patients in these series had no amputation criteria of the limb affected by the DFU at the time of the initial evaluation. […] As mentioned before, conventional therapy in all patients was performed according to the standards of treatment for DFU established by the National Angiology Group of Cuba.
# patients with DFU [2] = experiment: Example 1: intralesional rhEGF in three treatment regimes, granulation, lesion closure and amputations in DFU patients; format: in vivo, human
# Description: To do so, the reconstitution and dilution of the vial containing the drug was performed with 5 mL of water for injection. The administrations were made until 100% granulation of lesion, the closure of the lesion by grafting, or when a maximum of 8 weeks of treatment was attained.
# Patients belonging to group 3 received the drug (75 μg/dose) three times a week, during the first week, by intralesional route. From the second week onward, the treatment continued with a dose of 225 μg, once a week. The treatment period was 8 weeks, although it was shorter if the complete closure of the lesion occurred earlier or if the ulcer reached a size smaller than 1 cm^2.
# The formulated product was lyophilized in vials containing 25 μg or 75 μg of the active pharmaceutical ingredient. The composition also contained pharmaceutically acceptable excipients, such as stabilizers and pH regulators.
# Patients in all three groups continued receiving conventional therapy, which was performed according to the DFU treatment standards established by the National Angiology Group of Cuba. This consists of: offloading of the lesion, metabolic control of the underlying disease with insulin (which replaces oral hypoglycemic agents), washing of the lesion with saline solution and mild soap substances, debridement, application of sterile dressings with gauze bandage, and antimicrobials, depending on the type of infectious germ present in the lesion.
# The area of the DFU and the percentage of granulation were measured by a commercial system created for these purposes (Visitrak™, Smith & Nephew), which consists of grid transparent films and a device to measure the lesion by planimetry. This system has been previously validated (Sugama J, et al. J Clin Nurs 2007; 16 (7): 1265-1269). Using a permanent marker, the tracing of the contours of the lesion and the granulated regions, on the grid transparent film, was conducted.
# DFU = conditions: approved lyophilized medicament, intralesional; highest reduction in less complicated ulcers; cited from earlier work
# [3] = Example 2: pharmacokinetic study, rhEGF levels in plasma of DFU patients after intralesional administration (ELISA); format: in vivo, human; conditions: for Amount of rhEGF remaining in the area of the ulcer: bioavailability analysis; for AUC / t½: intralesional, plasma, immediately after the first administration
# Description: A pharmacokinetic study was carried out, starting from blood samples taken from 31 patients. […] The most important parameters evaluated were the ‘Area under the Curve’ (AUC) and the half-life time (t½) among others. […] The treatment was performed for 8 weeks, or less time if the ulcer area reached a measure equal or less than 1 cm^2.
# For the quantitation of this growth factor, the instructions of the kit manufacturer were followed.
# [4] = system: patients of DFU with amputation criteria of the affected limb; experiment: Example 3: healing of DFU after intralesional rhEGF at different doses, three times a week then once a week, versus three times a week control; format: in vivo, human; conditions: for Closure of the lesion (%) / Closure of the lesion, number of patients: three times a week then once a week, during follow-up; for Complete granulation response (%) / Complete granulation response, number of patients: at 8 weeks
# Description: The route of administration was always the intralesional one. […] The doses administered per group were 2.5 μg, 25 μg, 50 μg and 75 μg. Seven patients were incorporated into the group that received 2.5 μg, 10 patients to the group that received the 25 μg dose; 13 patients to the group that received 50 μg and 18 patients in the group of 75 μg.
# On the other hand, there was a group of 93 patients who were treated, during the whole period, with the dose of 75 μg three times a week. The period of treatment was 8 weeks.
# Patients in all groups continued receiving the conventional therapy, which was performed according to the DFU standard treatment established by the National Angiology Group of Cuba, as summarized in Example 1.
# patients with DFU [5] = experiment: Example 5: case reports, injectable rhEGF once a week in DFU patients with no criteria for amputation; format: in vivo, human; conditions: 75 μg once a week for two weeks
# Text: The size of the lesion, after debridement, was 10 cm^2.
# The ulcer base was covered with more than 75% of useful granulation tissue. The ulcer size was 7 cm^2.
# [6] = 2.5 μg once a week plus conventional therapy, n = 10, between 8 and 12 weeks
# [7] = 25 μg once a week plus conventional therapy, n = 15, between 8 and 12 weeks
# [8] = 50 μg once a week plus conventional therapy, n = 15, between 8 and 12 weeks
# [9] = 75 μg once a week plus conventional therapy, n = 20, between 8 and 12 weeks
# [10] = Group 1: 75 μg/dose three times a week, n = 45
# [11] = Group 2: 25 μg/dose three times a week intralesional, n = 45, at 3 weeks
# [12] = Group 2: 25 μg/dose three times a week, n = 45
# [13] = Group 2: 25 μg/dose three times a week, n = 45, end of treatment
# [14] = Group 3: 75 μg three times a week first week, then 225 μg once a week, n = 25
# [15] = Group 3: 75 μg three times a week first week, then 225 μg once a week, n = 25, end of treatment
# [16] = Group 3: 75 μg three times a week in first week, then 225 μg once a week, n = 25, at 3 weeks
# [17] = 25 μg three times a week then once a week, n = 10
# [18] = 50 μg three times a week then once a week, n = 13, at 3 weeks
# [19] = 75 μg three times a week then once a week, n = 18
# [20] = Control Group: 75 μg three times a week for 8 weeks, n = 93, at 3 weeks
# [21] = Control Group: 75 μg three times a week for 8 weeks, n = 93
substance,measurement,setting,value
recombinant human Epidermal Growth Factor [rhEGF],Closure of the Lesion No (%),[1]; [6],(40%)
same,"Closure of the Lesion No, number of patients",[1]; [6],4
same,"Closure of the Lesion Yes, number of patients","[1]; 2.5 μg once a week plus conventional therapy, n = 10, between 8 and 12 weeks after commencement",6
same,Closure of the Lesion No (%),[1]; [7],(33%)
same,Closure of the Lesion Yes (%),[1]; [7],(67%)
same,Closure of the Lesion No (%),[1]; [8],(40%)
same,"Closure of the Lesion No, number of patients",[1]; [8],6
same,"Closure of the Lesion Yes, number of patients",[1]; [8],9
same,"Closure of the Lesion No, number of patients",[1]; [9],4
same,Closure of the Lesion Yes (%),[1]; [9],(80%)
same,"Closure of the Lesion Yes, number of patients",[1]; [9],16
same,Granulation Objective Response CR*+PR* (%),"patients with DFU [2]; Group 1: 75 μg/dose three times a week intralesional, n = 45, at 3 weeks",75%
same,"Granulation Objective Response CR*+PR*, number of patients","patients with DFU [2]; Group 1: 75 μg/dose three times a week intralesional, n = 45, at 3 weeks (>50% of lesion area covered by granulation tissue)",34
same,"Amputations, number of patients",patients with DFU [2]; [10],6
same,"Lesion Closure, number of patients",patients with DFU [2]; [10],34
same,Granulation Complete Response CR (%),"patients with DFU [2]; Group 1: 75 μg/dose three times a week, n = 45, end of treatment",80%
same,"Granulation Complete Response CR, number of patients","patients with DFU [2]; Group 1: 75 μg/dose three times a week, n = 45, end of treatment (100% of lesion area granulated)",36
same,Granulation Objective Response CR*+PR* (%),patients with DFU [2]; [11],64%
same,"Granulation Objective Response CR*+PR*, number of patients",patients with DFU [2]; [11],29
same,Amputations (%),patients with DFU [2]; [12],22%
same,"Lesion Closure, number of patients",patients with DFU [2]; [12],27
same,Granulation Complete Response CR (%),patients with DFU [2]; [13],69%
same,"Granulation Complete Response CR, number of patients",patients with DFU [2]; [13],31
same,"Amputations, number of patients",patients with DFU [2]; [14],3
same,"Lesion Closure, number of patients",patients with DFU [2]; [14],18
same,Granulation Complete Response CR (%),patients with DFU [2]; [15],76%
same,"Granulation Complete Response CR, number of patients",patients with DFU [2]; [15],19
same,Granulation Objective Response CR*+PR* (%),patients with DFU [2]; [16],68%
same,"Granulation Objective Response CR*+PR*, number of patients",patients with DFU [2]; [16],17
same,Reduction of amputation rates,DFU,≥ 70%
same,Amount of rhEGF remaining in the area of the ulcer,[3]; 25 μg dose,about 19 μg
same,AUC,[3]; 25 μg dose,0.0851 ± 0.0502 ng·h/mL
same,t½,[3]; 25 μg dose,51 ± 46.8 min
same,Amount of rhEGF remaining in the area of the ulcer,[3]; 75 μg dose,~58 µg
same,AUC,[3]; 75 μg dose,0.1978 ± 0.0739 ng·h/mL
same,t½,[3]; 75 μg dose,39.6 ± 10.8 min
same,Amount of rhEGF remaining in the area of the ulcer,[3]; 225 μg dose,around 63 μg
same,AUC,[3]; 225 μg dose,0.2886 ± 0.0894 ng·h/mL
same,t½,[3]; 225 μg dose,45 ± 12.6 min
same,Plasma rhEGF value after two hours of sample collection,"[3]; independently of the dose received (25, 75, 225 μg)",returned to baseline levels
same,Closure of the lesion (%),[4]; 2.5 μg group,57%
same,"Closure of the lesion, number of patients",[4]; 2.5 μg group,4
same,Objective granulation response (%),"[4]; 2.5 μg three times a week then once a week, n = 7, at 3 weeks",(57%)
same,Complete granulation response (%),"[4]; 2.5 μg three times a week then once a week, n = 7",(71%)
same,"Objective granulation response, number of patients","[4]; 2.5 μg three times a week until no amputation criterion, then once a week, n = 7, ≥75% of lesion area granulated at 3 weeks",4
same,"Objective granulation response, number of patients","[4]; 25 μg three times a week then once a week, n = 10, at 3 weeks",6
same,Complete granulation response (%),[4]; [17],(70%)
same,"Complete granulation response, number of patients",[4]; [17],7
same,Closure of the lesion (%),[4]; 50 μg group,69%
same,"Closure of the lesion, number of patients",[4]; 50 μg group,9
same,Objective granulation response (%),[4]; [18],(61%)
same,"Objective granulation response, number of patients",[4]; [18],8
same,Complete granulation response (%),"[4]; 50 μg three times a week then once a week, n = 13",(77%)
same,Closure of the lesion (%),[4]; 75 μg group,72%
same,Objective granulation response (%),"[4]; 75 μg three times a week then once a week, n = 18, at 3 weeks",(72%)
same,Complete granulation response (%),[4]; [19],(83%)
same,"Complete granulation response, number of patients",[4]; [19],15
same,Objective granulation response (%),[4]; [20],(77%)
same,"Objective granulation response, number of patients",[4]; [20],72
same,Complete granulation response (%),[4]; [21],(85%)
same,"Complete granulation response, number of patients",[4]; [21],79
same,Closure of the lesion (% of the patients),"[4]; control group, 75 μg three administrations per week",81%
same,Reduction in the risk of amputation,[4]; new treatment schedule (three times a week then once a week) along with conventional therapy,more than 80%
same,Amputations,[4]; the four groups that differed in the rhEGF dose and the control group,below 12%
same,"Lesion closure, Patient A","patients with DFU [5]; Patient A, 10 cm^2 superficial lesion, after said time",complete closure of the lesion was attained
same,"Time to closure of the lesion after the first application, Patient B","patients with DFU [5]; Patient B, 7 cm^2 deep lesion",9 weeks
same,"Granulation response, Patient B","patients with DFU [5]; Patient B, 7 cm^2 deep lesion, after said time",complete granulation response was obtained
